The text below walks through data of ChEMBL document CHEMBL5729615, “Inhibitors of protein arginine methyltransferase 5 (PRMT5), pharmaceutical products thereof, and methods thereof” (2023).

In the test the target is PRMT5/MEP50 complex (Homo sapiens, UniProt O14744). The test is described as follows: 2.5 μL of compound solution in the assay buffer with 4% DMSO and 5 μL of PRMT5/MRP50 complex/SAM mixture solution in the assay buffer which was pre-incubated for 30 minutes were added into a white low volume 384 well microtiter plate. This mixture solution was incubated for 15 minutes with gentle shaking at room temperature. Methyl transfer reaction was initiated by adding 2.5 μL of Biotin-H4 (1-21) peptide substrate solution in the assay buffer. […] The reaction was allowed to perform for 120 minutes in dark with gentle shaking at room temperature after which 5 μL of Anti-H4R3-Me AlphaLISA acceptor beads in detection buffer from the manufacturer was added into the reaction mixture followed by incubation for 60 minutes. 10 μL of Streptavidin labeled AlphaLISA donor beads in detection buffer was added into the mixture followed by 30 minute incubation. Final acceptor and donor beads concentrations were 10 μg/mL. The class given is protein-complex assay. (Bead proximity is the source of the signal in Alpha formats.)
PRMT5/MEP50 complex, sequence (O14744 whole entry): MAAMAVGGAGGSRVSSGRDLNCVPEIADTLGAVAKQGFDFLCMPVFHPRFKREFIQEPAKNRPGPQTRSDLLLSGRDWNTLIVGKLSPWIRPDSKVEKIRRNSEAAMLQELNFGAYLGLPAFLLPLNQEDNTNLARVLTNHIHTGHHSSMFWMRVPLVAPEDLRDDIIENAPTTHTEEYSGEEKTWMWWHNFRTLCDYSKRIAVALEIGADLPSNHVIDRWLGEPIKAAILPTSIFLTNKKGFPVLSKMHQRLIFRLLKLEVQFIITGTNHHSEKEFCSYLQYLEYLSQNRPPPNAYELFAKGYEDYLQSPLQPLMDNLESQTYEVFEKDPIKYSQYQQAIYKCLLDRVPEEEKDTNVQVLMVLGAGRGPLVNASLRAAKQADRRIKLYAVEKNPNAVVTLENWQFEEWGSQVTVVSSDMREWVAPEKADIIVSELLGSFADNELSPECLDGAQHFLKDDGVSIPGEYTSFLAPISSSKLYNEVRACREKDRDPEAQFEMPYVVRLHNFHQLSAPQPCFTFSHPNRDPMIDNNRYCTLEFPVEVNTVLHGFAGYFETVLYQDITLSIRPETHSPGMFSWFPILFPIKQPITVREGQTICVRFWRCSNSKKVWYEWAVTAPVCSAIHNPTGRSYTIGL
PRMT5/MEP50 complex, sequence (Q9BQA1 whole entry, further chain): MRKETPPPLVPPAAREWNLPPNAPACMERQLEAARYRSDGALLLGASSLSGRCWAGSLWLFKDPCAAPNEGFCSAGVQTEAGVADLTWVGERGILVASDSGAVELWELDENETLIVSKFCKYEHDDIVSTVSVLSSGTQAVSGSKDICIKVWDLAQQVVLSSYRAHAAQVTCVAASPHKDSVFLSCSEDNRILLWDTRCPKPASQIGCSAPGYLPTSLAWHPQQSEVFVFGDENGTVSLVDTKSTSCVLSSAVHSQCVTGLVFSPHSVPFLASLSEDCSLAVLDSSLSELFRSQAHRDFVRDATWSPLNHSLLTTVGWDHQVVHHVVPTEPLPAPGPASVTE

Take `O=C1c2cc(NC3CCC3)ccc2CCN1CC(O)CN1CCc2ccccc2C1` (stereo unspecified): the IC50 amounted to 236 nM.

In general, IC50 refers to the concentration that gives 50% inhibition.
